The results in this text go back to article PMC11992618, “Development of cyclopeptide inhibitors specifically disrupting FXR–coactivator interaction in the intestine as a novel therapeutic strategy for MASH” (Life Metabolism, 2025).

As a reminder, the IC50 is the concentration that inhibits the measured activity by half.

For assay [1], the system named is MCD diet-induced MASH. The experiment in a line: MCD diet-induced MASH mice, long-term model. The class given is in vivo, mouse. Conditions: oral, 4 weeks. The procedure:
For the long-term MASH model, 8- to 10-week-old male C57BL/6 J mice were fed with an MCS diet or MCD diet for 2 weeks, before the MCD models were administered with vehicle or GUDCA (50 mg/kg), OCA (30 mg/kg), and DC646 (10 mg/kg) for 4 weeks. The serum, liver, and intestine were collected 2 h after the final dosing. Male Fxr^△IE mice (8–10 weeks old) were fed with a GAN diet for 20 weeks and administered with vehicle or DC646 (10 mg/kg) from the 12th week for 8 weeks. The serum, liver, and intestine were collected 2 h after the final dosing.
(§1) The intestine and liver were frozen in liquid nitrogen and stored at −80°C. RNA was extracted, and complementary DNA was synthesized from 1 μg total RNA. RT-qPCR was performed on a Bio-Rad CFX384 Touch detection system (Bio-Rad). The primer sequences for RT-qPCR are shown in Supplementary Table S5. RNA levels were analyzed by 2-^ΔΔCt, normalized to 18S ribosomal RNA and expressed as fold change relative to the control group.
(§2) Hepatic TG and TC, and plasma ALT and AST levels were measured using commercial kits from Nanjing Jiancheng Bioengineering Institute according to the manufacturer’s instructions. To measure hepatic TG contents, liver tissues (~10 mg) were homogenized in 100 μL 1% TritonX-100 and centrifuged at 3000 rpm for 10 min. Supernatants were collected, and 2 μL samples were incubated with 200 μL reaction buffer at 37°C for 10 min. Hepatic TG or TC levels were read at 510 or 500 nm using a microplate reader (Versamax, Molecular Devices) and normalized using the protein concentration. To measure plasma ALT and AST levels, reaction buffer 1 and reaction buffer 2 were mixed at a ratio of 1:1, before adding 2 μL plasma sample and 200 μL mixed reaction buffer in a 96-well plate. The data were acquired using the kinetic mode with an interval of 30 s and 31 total reads at 340 nm using a microplate reader (Versamax, Molecular Devices).
Tissue specimens were fixed in 10% formalin for 12–24 h before being dehydrated and paraffin-embedded. The sections were stained with H&E. The NAS was calculated as a summary score including individual components of steatosis (0–3), lobular inflammation (0–3), and hepatocyte ballooning (0–2) for each liver section by a blinded liver pathologist, and the results were reviewed by a blinded hepatologist according to a previous protocol. To visualize liver fibrosis, paraffin-embedded tissue samples were stained with Sirius Red to characterize the collagen deposition. To visualize lipid accumulation and inflammation in the liver, frozen liver sections were stained with Oil Red O and F4/80, and images were acquired using a Leica DM6B laser microdissection system. At least three discontinuous liver sections were evaluated for each mouse.

In assay [2] the target is T1, human FXR alpha (hFXRα)-LBD / SRC2-3 peptide (Homo sapiens, UniProt Q96RI1).
T1 construct: 100 nmol/L 6*His-hFXRα-LBD and 100 nmol/L biotinylated co-factor peptide
T1 sequence (Q96RI1 262-486 limits assumed): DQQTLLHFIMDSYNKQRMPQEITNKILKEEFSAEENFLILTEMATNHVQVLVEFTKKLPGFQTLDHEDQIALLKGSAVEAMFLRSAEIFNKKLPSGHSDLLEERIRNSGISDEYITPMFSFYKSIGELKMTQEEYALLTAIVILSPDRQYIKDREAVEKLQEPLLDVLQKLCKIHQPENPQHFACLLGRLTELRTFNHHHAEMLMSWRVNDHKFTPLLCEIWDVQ
The experiment in a line: AlphaScreen assay, recruitment of coactivator peptide SRC2-3 to His-hFXRα-LBD. The class given is biochemical. On the procedure:
An AlphaScreen technology-based assay was performed according to the manufacturer’s instructions with a minor revision. Briefly, the experiment was conducted with compounds at the indicated concentrations, 100 nmol/L 6*His-hFXRα-LBD and 100 nmol/L biotinylated co-factor peptide in the buffer containing 50 mmol/L MOPS, 50 μmol/L CHAPS, 50 mmol/L NaF, and 0.1 mg/mL BSA, pH 7.4. The mixture was incubated with 50 μg/mL nickel acceptor beads and 50 μg/mL streptavidin donor beads in a 384-well plate under green light in the dark at room temperature, before conducting fluorescence measurement with excitation at 680 nm and emission at 550 nm on an Envision microplate analyzer (PE 2102-8340, PerkinElmer Life Sciences).
On the technique in general: Alpha assays give light when donor and acceptor beads are brought close together.

Assay [3] has as its system intestinal and hepatic FXR signaling. The experiment in a line: In vivo intestinal FXR antagonism experiment (TCA-induced). Set-up: species or system mouse. Conditions: mice, oral 20 mg/kg with TCA 400 mg/kg/day, 3 doses. The procedure: For the in vivo intestinal FXR antagonism experiment, after a 3-day treatment with an antibiotic cocktail (1 mg/mL neomycin, 1 mg/mL streptomycin, and 1 mg/mL bacitracin) in drinking water, 8- to 10-week-old male C57BL/6 J mice were orally administered with vehicle or TCA (400 mg/kg/day), TCA combined with GUDCA (50 mg/kg), or TCA combined with DC646 (20 mg/kg) once a day. The serum, liver, and intestine were collected 2 h after the third dosing.
as §1

Assay [4] deals with MCD diet-induced MASH. The experiment in a line: MCD diet short-term MASH model in WT and Fxr-null mice. The format is in vivo, mouse. Conditions: oral 10 mg/kg, 2 weeks. The procedure: For the short-term MASH model, 8- to 10-week-old male C57BL/6 J or Fxr-null mice were fed with an MCD diet, combined with oral administration of vehicle or DC646 (10 mg/kg) for 2 weeks. The serum, liver, and intestine were collected 2 h after the final dosing.
as §1
as §2, with “To measure plasma ALT and AST levels, reaction buffer 1 and reaction buffer 2 were mixed at a ratio of 1:1, before adding 2 μL plasma sample and 200 μL mixed reaction buffer in a 96-well plate.” left out
Tissue specimens were fixed in 10% formalin for 12–24 h before being dehydrated and paraffin-embedded. The sections were stained with H&E. The NAS was calculated as a summary score including individual components of steatosis (0–3), lobular inflammation (0–3), and hepatocyte ballooning (0–2) for each liver section by a blinded liver pathologist, and the results were reviewed by a blinded hepatologist according to a previous protocol. […] At least three discontinuous liver sections were evaluated for each mouse.

Where [5] appears, read: DC646 10 mg/kg, GUDCA 50 mg/kg, OCA 30 mg/kg.

In the case of `CC(C)C[C@@H]1NC(=O)[C@@H]2CN(CCO2)c2cccc3c2c(cn3[Si](C(C)C)(C(C)C)C(C)C)C[C@H](NS(=O)(=O)C(F)(F)F)C(=O)OCCCCNC(=O)[C@H](CC(C)C)NC(=O)[C@@H]2CN(CCO2)c2cccc3c2c(cn3[Si](C(C)C)(C(C)C)C(C)C)C[C@H](NS(=O)(=O)C(F)(F)F)C(=O)OCCCCNC1=O` [DC646, N,N'-((1^2R,1^4S,16^2R,16^4S,4R,13R,19R,28R)-13,28-diisobutyl-5,12,15,20,27,30-hexaoxo-2^1,17^1-bis(triisopropylsilyl)-2^1H,17^1H-6,21-dioxa-11,14,26,29-tetraaza-1(4,2),16(2,4)-dimorpholina-2,17(4,3)-diindolacyclotriacontaphane-4,19-diyl)bis(1,1,1-trifluoromethanesulfonamide)], in assay [1] (DC646 10 mg/kg), the “F4/80 staining, macrophage infiltration in the liver” value was “good efficacy in reducing macrophage infiltration”; the “Hepatic FXR signaling in MASH mice” value was “without affecting”; the “Hepatic triglyceride (TG) levels” value was “markedly reduced”; the “Intestinal FXR signaling in MASH mice” value is recorded as “selectively inhibited”. For the same compound, the “NAFLD activity scoring (NAS)” value in assay [1] (DC646 10 mg/kg) was “alleviating MASH pathologies”. Further, the “Hepatic mRNA levels of inflammation-related genes” value in assay [1] (DC646 10 mg/kg, GUDCA 50 mg/kg) is “notable reduction”. In assay [1] (setting [5]), the “Hepatic mRNA levels of lipid metabolism-related genes / hepatic lipid accumulation” value is given as “reduce the mRNA levels” and the “Serum alanine aminotransferase (ALT) level” value is “significantly lowered”. Further, the “H&E and Oil Red O staining, lipid droplets” value in assay [1] (versus vehicle-, GUDCA- and OCA-treated groups) is given as “fewer lipid droplets”. Besides, the “Agonistic activity (SRC2-3 recruitment, compound alone)” value in assay [2] (DC646 alone, Fig. 2e) is on record as “no agonistic activity”. Further, the “Disruption of hFXRα-LBD-SRC2-3 interaction induced by Ivermectin” value in assay [2] (DC646 at 11 μmol/L, Ivermectin 5 μmol/L) is “competitively disrupted”. Further, the IC50 in assay [2] (IC50, DC646 combined with CDCA, adding order: DC646 combined with CDCA, Fig. 4b) was found to be 12.2 µM. Besides, the IC50 in assay [2] (IC50 in recruiting the SRC2-3 peptide in the presence of CDCA, in the presence of CDCA (50 μmol/L), Fig. 2f) is 8.86 µM. Also, the “Effect on CDCA agonism when adding DC646 before CDCA” value in assay [2] (adding order: CDCA after DC646) is reported as “completely blunted the agonism of CDCA”. Besides, the “Antagonism when adding DC646 after CDCA” value in assay [2] (adding order: DC646 after CDCA) is “no antagonism”. For the same compound, in assay [3], the “Hepatic FXR signaling” value is recorded as “not hepatic FXR signaling”; the “mRNA expression levels of TCA-induced FXR target genes Shp and Fgf15 (intestine)” value is reported as “decreased”. The “Decrease in ALT and antisteatotic effect” value in assay [4] (Fxr-null mice) is given as “abolished”. In assay [4] (WT mice), the “NAS score, steatosis” value is on record as “effectively reduced steatosis”; the “mRNA levels of intestinal FXR target genes Shp and Fgf15” value is listed as “significantly downregulated”.
